From US20250388553A1 (Incyte Corporation, priority 2018, published 2025)
Structures can show the parent of a compound that is named as a salt. Where two headings read alike, the source gives them in different places.

Legend:
[1] = test system: Phosphorylated Ribosomal Protein S6 (RPS6) in THP-1 cells; experiment: THP-1 RPS6 ELISA assay; format: cell-based, Human; details: THP-1 cells, 10 nM MCP-1, phospho-RPS6 ELISA, read-out: PI3Kγ_THP1_RPS6_ELISA IC50
Source text: Example A. THP-1 RPS6 ELISA Assay
To measure the Phosphorylated Ribosomal Protein S6 (RPS6) in cell lysates, THP-1 cells (Human Acute Monocytic Leukemia) are purchased from ATCC (Manassas, VA) and maintained in RPMI with 10% FBS (Gibco/Life Technologies, Carlsbad, CA). For the assay, THP-1 cells are serum starved overnight in RPMI, then plated in RPMI (2×10^5 cells/well in […]) into 96-well flat-bottom tissue culture treated plates (Corning, Corning, NY), in the presence or absence of a concentration range of test compounds. Covered plates are incubated for 2 hours at 37° C., 5% CO2 then treated with or without 10 nM MCP-1(MYBioSource, San Diego, CA) for 15 minutes at 37° C., 5% CO2. Plates are centrifuged at 1600 RPM and supernatants are removed. Cells are lysed in Lysis Buffer (Cell Signaling, Danvers, MA) with Protease Inhibitor (Calbiochem/EMD, Germany), PMSF (Sigma, St Louis MO), HALTS (Thermo Fisher, Rockford, IL) for 30 min on wet ice. Cell lysates are frozen at −80° C. before testing. The lysates are tested in the Human/Mouse/Rat Phospho-RPS6 ELISA (R&D Systems, Inc. Minn, MN). The plate is measured using a microplate reader (SpectraMax M5—Molecular Devices, LLC Sunnyvale, CA) set to 450 nm with a wavelength correction of 540. IC50 determination is performed by fitting the curve of inhibitor percent inhibition versus the log of the inhibitor concentration using the GraphPad Prism 5.0 software.
The compounds of the Examples were tested in the assays described in Examples A, B and C and found to have the IC50s are shown in Tables A1, A2, A3 and A4.

[2] = target: PI3Kδ (p1106/p85a) Recombinant Human Protein (Homo sapiens (Human), UniProt O00329); experiment: PI3Kδ scintillation proximity assay; format: biochemical; details: scintillation proximity assay, recombinant human PI3Kδ
[3] = target: PI3Kγ (p110γ) Recombinant Human Protein (Homo sapiens (Human), UniProt P48736); experiment: PI3K-γ scintillation proximity assay; format: biochemical; details: scintillation proximity assay, recombinant human p110γ
PI3Kγ (p110γ) Recombinant Human Protein, sequence (P48736 whole entry): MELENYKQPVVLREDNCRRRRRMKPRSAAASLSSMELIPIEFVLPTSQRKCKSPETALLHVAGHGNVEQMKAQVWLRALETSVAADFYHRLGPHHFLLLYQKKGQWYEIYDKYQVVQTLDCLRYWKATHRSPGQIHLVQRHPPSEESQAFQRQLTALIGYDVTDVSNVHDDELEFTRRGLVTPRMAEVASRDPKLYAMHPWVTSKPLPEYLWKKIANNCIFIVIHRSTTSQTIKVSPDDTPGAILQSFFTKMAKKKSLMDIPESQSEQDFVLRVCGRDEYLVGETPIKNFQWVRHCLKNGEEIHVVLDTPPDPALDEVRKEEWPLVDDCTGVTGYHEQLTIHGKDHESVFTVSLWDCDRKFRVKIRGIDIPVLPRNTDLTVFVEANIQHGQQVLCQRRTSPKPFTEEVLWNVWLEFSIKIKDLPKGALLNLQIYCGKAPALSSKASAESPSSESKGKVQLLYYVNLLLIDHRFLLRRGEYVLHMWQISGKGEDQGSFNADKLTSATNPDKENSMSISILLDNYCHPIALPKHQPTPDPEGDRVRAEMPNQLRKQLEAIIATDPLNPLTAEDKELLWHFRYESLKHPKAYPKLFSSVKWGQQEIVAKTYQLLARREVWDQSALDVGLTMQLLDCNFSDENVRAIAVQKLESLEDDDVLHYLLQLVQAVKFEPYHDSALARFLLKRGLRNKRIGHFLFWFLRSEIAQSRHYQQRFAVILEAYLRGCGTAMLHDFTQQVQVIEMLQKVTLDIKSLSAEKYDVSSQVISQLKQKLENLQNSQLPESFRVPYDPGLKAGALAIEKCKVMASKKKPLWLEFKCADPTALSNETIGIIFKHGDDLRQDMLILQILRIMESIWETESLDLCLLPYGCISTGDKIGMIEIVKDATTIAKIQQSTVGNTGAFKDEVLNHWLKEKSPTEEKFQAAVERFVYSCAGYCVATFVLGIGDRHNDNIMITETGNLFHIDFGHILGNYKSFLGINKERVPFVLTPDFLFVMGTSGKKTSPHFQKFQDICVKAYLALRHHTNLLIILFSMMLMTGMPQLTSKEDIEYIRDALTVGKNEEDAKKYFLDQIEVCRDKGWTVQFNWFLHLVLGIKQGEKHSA

PI3Kδ (p1106/p85a) Recombinant Human Protein, sequence (O00329 whole entry): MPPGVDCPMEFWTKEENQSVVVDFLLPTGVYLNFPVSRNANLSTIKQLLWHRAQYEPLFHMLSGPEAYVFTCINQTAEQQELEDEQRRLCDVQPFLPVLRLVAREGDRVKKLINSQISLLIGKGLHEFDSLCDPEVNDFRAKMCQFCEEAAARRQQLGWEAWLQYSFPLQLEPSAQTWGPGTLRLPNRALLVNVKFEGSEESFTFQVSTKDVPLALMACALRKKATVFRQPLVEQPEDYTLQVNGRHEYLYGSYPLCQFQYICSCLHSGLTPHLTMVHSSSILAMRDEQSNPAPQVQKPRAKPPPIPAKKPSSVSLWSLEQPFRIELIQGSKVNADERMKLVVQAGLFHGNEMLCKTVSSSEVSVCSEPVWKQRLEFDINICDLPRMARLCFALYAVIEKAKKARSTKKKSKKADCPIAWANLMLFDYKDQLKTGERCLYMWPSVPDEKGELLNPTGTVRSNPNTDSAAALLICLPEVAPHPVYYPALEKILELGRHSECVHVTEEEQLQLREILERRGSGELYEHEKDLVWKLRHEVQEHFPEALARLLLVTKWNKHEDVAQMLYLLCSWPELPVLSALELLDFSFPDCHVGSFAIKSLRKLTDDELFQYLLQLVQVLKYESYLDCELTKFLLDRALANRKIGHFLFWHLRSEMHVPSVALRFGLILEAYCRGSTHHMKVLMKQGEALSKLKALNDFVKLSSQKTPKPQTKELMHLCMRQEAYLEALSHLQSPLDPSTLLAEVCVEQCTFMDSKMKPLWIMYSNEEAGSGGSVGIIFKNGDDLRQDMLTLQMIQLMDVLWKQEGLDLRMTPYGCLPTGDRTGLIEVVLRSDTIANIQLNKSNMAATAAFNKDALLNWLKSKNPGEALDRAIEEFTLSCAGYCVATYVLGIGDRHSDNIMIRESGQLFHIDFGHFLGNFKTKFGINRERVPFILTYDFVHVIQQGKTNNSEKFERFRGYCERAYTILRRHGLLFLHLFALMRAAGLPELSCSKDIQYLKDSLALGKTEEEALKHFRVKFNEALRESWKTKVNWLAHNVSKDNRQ
PI3Kδ (p1106/p85a) Recombinant Human Protein, sequence (P27986 whole entry partner): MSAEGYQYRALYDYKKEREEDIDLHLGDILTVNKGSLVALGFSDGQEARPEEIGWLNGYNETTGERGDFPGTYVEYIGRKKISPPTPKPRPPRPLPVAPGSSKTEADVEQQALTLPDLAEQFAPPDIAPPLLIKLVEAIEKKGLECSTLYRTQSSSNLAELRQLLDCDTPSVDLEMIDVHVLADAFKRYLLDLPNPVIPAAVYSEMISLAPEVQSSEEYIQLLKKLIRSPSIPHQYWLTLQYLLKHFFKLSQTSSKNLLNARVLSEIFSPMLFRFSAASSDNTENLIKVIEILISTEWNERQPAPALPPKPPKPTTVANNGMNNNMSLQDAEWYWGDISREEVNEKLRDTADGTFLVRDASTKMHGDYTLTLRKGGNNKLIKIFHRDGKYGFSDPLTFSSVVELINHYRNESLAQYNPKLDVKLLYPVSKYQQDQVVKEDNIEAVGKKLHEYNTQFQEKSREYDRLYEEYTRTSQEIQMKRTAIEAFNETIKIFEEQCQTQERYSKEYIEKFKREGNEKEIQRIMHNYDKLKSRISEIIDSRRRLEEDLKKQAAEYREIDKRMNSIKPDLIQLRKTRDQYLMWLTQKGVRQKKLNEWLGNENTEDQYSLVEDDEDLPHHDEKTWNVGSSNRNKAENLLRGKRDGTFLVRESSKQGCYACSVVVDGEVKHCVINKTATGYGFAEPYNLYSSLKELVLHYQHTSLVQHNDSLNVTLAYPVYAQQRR

Question: How did the IC50 ([1]; Homo sapiens, Table A4) turn out when `Cc1ccc(C(O)(C(N)=O)C(F)(F)F)cc1-c1cnc(N)c(C2CN(S(=O)(=O)c3cnn(C)c3)C2)n1` (single isomer, unassigned) [Example 107, 2-(3-(5-Amino-6-(1-((1-methyl-1H-pyrazol-4-yl)sulfonyl)azetidin-3-yl)pyrazin-2-yl)-4-methylphenyl)-3,3,3-trifluoro-2-hydroxypropanamide, trifluoroacetate Salt] was run?
Answer: 0.5 to 1 µM

Question: How did the IC50 ([1]; Table A4) turn out when `CCOC(=O)C1CC(c2nc(-c3cc(C(O)(C(N)=O)C(F)(F)F)ccc3C)cnc2N)C1` (single isomer, unassigned) [Example 109, Ethyl 3-(3-amino-6-(5-(3-amino-1,1,1-trifluoro-2-hydroxy-3-oxopropan-2-yl)-2-methylphenyl)pyrazin-2-yl)cyclobutane-1-carboxylate] was run?
Answer: > 1 µM

Question: And the IC50 ([2]; Table A4)?
Answer: 0.1 to 0.5 µM

Question: With `Cc1ccc(C(O)(C(N)=O)C(F)(F)F)cc1-c1cnc(N)c(C(=O)N[C@H]2CC[C@H](O)CC2)n1` (stereo partly shown) [Example 3, 3-amino-6-(5-(3-amino-1,1,1-trifluoro-2-hydroxy-3-oxopropan-2-yl)-2-methylphenyl)-N-((1r,4r)-4-hydroxycyclohexyl)pyrazine-2-carboxamide trifluoroacetate] as the molecule, how does the IC50 ([3]; Table A1) read?
Answer: < 0.1 µM

Question: What about the IC50 ([1]; Table A1) of the same molecule?
Answer: < 0.1 µM

Question: What about the IC50 ([2]; Table A1) of the same molecule?
Answer: < 0.1 µM

Question: With `Cc1ccc(C(O)(C(N)=O)C(F)(F)F)cc1-c1cnc(N)c(C(=O)N[C@H]2CC[C@](C)(O)CC2)n1` (stereo partly shown) [Example 17, 3-amino-6-(5-(3-amino-1,1,1-trifluoro-2-hydroxy-3-oxopropan-2-yl)-2-methylphenyl)-N-((1r,4r)-4-hydroxy-4-methylcyclohexyl)pyrazine-2-carboxamide trifluoroacetate] as the molecule, how does the IC50 ([3]; Table A1) read?
Answer: < 0.1 µM

Question: And the IC50 ([1]; Table A1)?
Answer: < 0.1 µM

Question: And the IC50 ([2]; Table A1)?
Answer: < 0.1 µM

Question: `Cc1ccc(C(O)(C(N)=O)C(F)(F)F)cc1-c1cnc(N)c(C(=O)N[C@H]2CC[C@@](O)(C(F)(F)F)CC2)n1` (stereo partly shown) [Example 18, 3-amino-6-(5-(3-amino-1,1,1-trifluoro-2-hydroxy-3-oxopropan-2-yl)-2-methylphenyl)-N-((1r,4r)-4-hydroxy-4-(trifluoromethyl)cyclohexyl)pyrazine-2-carboxamide trifluoroacetate] was tested. Which IC50 ([3]; Table A1) did it give?
Answer: < 0.1 µM

Question: And the IC50 ([1]; Table A1)?
Answer: < 0.1 µM

Question: And the IC50 ([2]; Table A1)?
Answer: < 0.1 µM

Question: Which IC50 ([3]; Table A1) does the source give for `Cc1ccc(C(O)(C(N)=O)C(F)(F)F)cc1-c1cnc(N)c(C(=O)N[C@H]2CC[C@H](C(C)(C)O)CC2)n1` (stereo partly shown) [Example 19, 3-amino-6-(5-(3-amino-1,1,1-trifluoro-2-hydroxy-3-oxopropan-2-yl)-2-methylphenyl)-N-((1r,4r)-4-(2-hydroxypropan-2-yl)cyclohexyl)pyrazine-2-carboxamide trifluoroacetate] here?
Answer: < 0.1 µM

Question: What about the IC50 ([1]; Table A1) of the same molecule?
Answer: < 0.1 µM

Question: What about the IC50 ([2]; Table A1) of the same molecule?
Answer: < 0.1 µM

Question: `CO[C@H]1CC[C@H](NC(=O)c2nc(-c3cc(C(O)(C(N)=O)C(F)(F)F)ccc3C)cnc2N)CC1` (stereo partly shown) [Example 22, 3-amino-6-(5-(3-amino-1,1,1-trifluoro-2-hydroxy-3-oxopropan-2-yl)-2-methylphenyl)-N-((1r,4r)-4-methoxycyclohexyl)pyrazine-2-carboxamide trifluoroacetate] was tested. Which IC50 ([3]; Table A1) did it give?
Answer: < 0.1 µM

Question: And the IC50 ([1]; Table A1)?
Answer: < 0.1 µM

Question: And the IC50 ([2]; Table A1)?
Answer: < 0.1 µM

Question: What does the source list for `COC[C@H]1CCN1C(=O)c1nc(-c2cc(C(O)(C(N)=O)C(F)(F)F)ccc2C)cnc1N` (stereo partly drawn) [Example 26, 2-(3-(5-amino-6-((R)-2-(methoxymethyl)azetidine-1-carbonyl)pyrazin-2-yl)-4-methylphenyl)-3,3,3-trifluoro-2-hydroxypropanamide]?
Answer: IC50 ([3]; Table A1): < 0.1 µM; IC50 ([1]; Homo sapiens, Table A1): 0.1 to 0.5 µM; IC50 ([2]; Table A1): < 0.1 µM

Question: What does the source list for `Cc1ccc(C(O)(C(N)=O)C(F)F)cc1-c1cnc(N)c(C(=O)NC(C)C)n1` (stereo not shown) [Example 31]?
Answer: IC50 ([3]; Table A1): < 0.1 µM; IC50 ([1]; Table A1): < 0.1 µM; IC50 ([2]; Table A1): < 0.1 µM

Question: How did the IC50 ([3]; Table A1) turn out when `CC(=O)NCC(O)(c1ccc(C)c(-c2cnc(N)c(C(=O)NC(C)C)n2)c1)C(F)(F)F` (stereo not shown) [Example 39, 6-(5-(3-Acetamido-1,1,1-trifluoro-2-hydroxypropan-2-yl)-2-methylphenyl)-3-amino-N-isopropylpyrazine-2-carboxamide trifluoroacetate] was run?
Answer: < 0.1 µM

Question: And the IC50 ([1]; Homo sapiens, Table A1)?
Answer: 0.1 to 0.5 µM

Question: And the IC50 ([2]; Table A1)?
Answer: < 0.1 µM

Question: With `Cc1ccc(C(O)(CNC(=O)CF)C(F)(F)F)cc1-c1cnc(N)c(C(=O)NC(C)C)n1` (stereo not shown) [Example 40, 3-Amino-N-isopropyl-6-(2-methyl-5-(1,1,1-trifluoro-3-(2-fluoroacetamido)-2-hydroxypropan-2-yl)phenyl)pyrazine-2-carboxamide trifluoroacetate] as the molecule, how does the IC50 ([3]; Table A1) read?
Answer: < 0.1 µM

Question: What about the IC50 ([1]; Homo sapiens, Table A1) of the same molecule?
Answer: 0.1 to 0.5 µM

Question: What about the IC50 ([2]; Table A1) of the same molecule?
Answer: < 0.1 µM

Question: How did the IC50 ([3]; Table A1) turn out when `Cc1ccc(C(O)(CNC(=O)CC#N)C(F)(F)F)cc1-c1cnc(N)c(C(=O)NC(C)C)n1` (stereo not shown) [Example 42, 3-Amino-6-(5-(3-(2-cyanoacetamido)-1,1,1-trifluoro-2-hydroxypropan-2-yl)-2-methylphenyl)-N-isopropylpyrazine-2-carboxamide trifluoroacetate] was run?
Answer: < 0.1 µM

Question: And the IC50 ([1]; Homo sapiens, Table A1)?
Answer: 0.1 to 0.5 µM

Question: What about the IC50 ([2]; Table A1) of the same molecule?
Answer: < 0.1 µM

Question: `CCCc1nc(-c2cc(C(O)(C(N)=O)C(F)(F)F)ccc2C)cnc1N` (stereo not shown) [Example 45, 2-(3-(5-amino-6-propylpyrazin-2-yl)-4-methylphenyl)-3,3,3-trifluoro-2-hydroxypropanamide] was tested. Which IC50 ([3]; Table A2) did it give?
Answer: < 0.1 µM

Question: What about the IC50 ([1]; Homo sapiens, Table A2) of the same molecule?
Answer: 0.1 to 0.5 µM

Question: And the IC50 ([2]; Table A2)?
Answer: 0.1 to 0.5 µM

Question: With `Cc1ccc(C(O)(C(N)=O)C(F)(F)F)cc1-c1cnc(N)c(C#CC(C)C)n1` (stereo not shown) [Example 49, 2-(3-(5-amino-6-(3-methylbut-1-ynyl)pyrazin-2-yl)-4-methylphenyl)-3,3,3-trifluoro-2-hydroxypropanamide] as the molecule, how does the IC50 ([3]; Table A2) read?
Answer: < 0.1 µM

Question: What about the IC50 ([1]; Homo sapiens, Table A2) of the same molecule?
Answer: 0.1 to 0.5 µM

Question: What about the IC50 ([2]; Table A2) of the same molecule?
Answer: < 0.1 µM

Question: Which IC50 ([3]; Table A2) does the source give for `Cc1ccc(C(O)(C(N)=O)C(F)(F)F)cc1-c1cnc(N)c(C#Cc2ccn[nH]2)n1` (stereo not shown) [Example 52, 2-(3-(6-((1H-pyrazol-5-yl)ethynyl)-5-aminopyrazin-2-yl)-4-methylphenyl)-3,3,3-trifluoro-2-hydroxypropanamide] here?
Answer: < 0.1 µM

Question: And the IC50 ([1]; Homo sapiens, Table A2)?
Answer: 0.1 to 0.5 µM

Question: What about the IC50 ([2]; Table A2) of the same molecule?
Answer: < 0.1 µM

Question: What does the source list for `Cc1ccc(C(O)(C(N)=O)C(F)(F)F)cc1-c1cnc(N)c(C#Cc2cncn2C)n1` (stereo not shown) [Example 53, 2-(3-(5-amino-6-((1-methyl-1H-imidazol-5-yl)ethynyl)pyrazin-2-yl)-4-methylphenyl)-3,3,3-trifluoro-2-hydroxypropanamide]?
Answer: IC50 ([3]; Table A2): < 0.1 µM; IC50 ([1]; Table A2): 0.1 to 0.5 µM; IC50 ([2]; Table A2): < 0.1 µM

Question: For `Cc1ncc(-c2nc(-c3cc(C(O)(C(N)=O)C(F)(F)F)ccc3C)cnc2N)o1` (stereo not shown) [Example 70, 2-(3-(5-amino-6-(2-methyloxazol-5-yl)pyrazin-2-yl)-4-methylphenyl)-3,3,3-trifluoro-2-hydroxypropanamide trifluoroacetate], which IC50 ([3]; Table A3) is on record?
Answer: < 0.1 µM

Question: What about the IC50 ([1]; Homo sapiens, Table A3) of the same molecule?
Answer: < 0.1 µM

Question: What about the IC50 ([2]; Table A3) of the same molecule?
Answer: < 0.1 µM

Question: Which results are given for `Cc1ccc(C(O)(C(N)=O)C(F)(F)F)cc1-c1cnc(N)c(-c2cnn(C)c2)n1` (stereo not shown) [Example 71, 2-(3-(5-amino-6-(1-methyl-1H-pyrazol-4-yl)pyrazin-2-yl)-4-methylphenyl)-3,3,3-trifluoro-2-hydroxypropanamide trifluoroacetate]?
Answer: IC50 ([3]; Table A3): < 0.1 µM; IC50 ([1]; Homo sapiens, Table A3): < 0.1 µM; IC50 ([2]; Table A3): < 0.1 µM

Question: With `Cc1ncc(-c2nc(-c3cc(C(O)(C(N)=O)C(F)(F)F)ccc3C)cnc2N)s1` (stereo not shown) [Example 72, 2-(3-(5-amino-6-(2-methylthiazol-5-yl)pyrazin-2-yl)-4-methylphenyl)-3,3,3-trifluoro-2-hydroxypropanamide trifluoroacetate] as the molecule, how does the IC50 ([1]; Homo sapiens, Table A3) read?
Answer: < 0.1 µM

Question: With `Cc1ccc(C(O)(C(N)=O)C(F)(F)F)cc1-c1cnc(N)c(-c2cnn(C)n2)n1` (stereo not shown) [Example 73, 2-(3-(5-amino-6-(2-methyl-2H-1,2,3-triazol-4-yl)pyrazin-2-yl)-4-methylphenyl)-3,3,3-trifluoro-2-hydroxypropanamide trifluoroacetate] as the molecule, how does the IC50 ([3]; Table A3) read?
Answer: < 0.1 µM

Question: And the IC50 ([1]; Homo sapiens, Table A3)?
Answer: < 0.1 µM

Question: What about the IC50 ([2]; Table A3) of the same molecule?
Answer: < 0.1 µM
